# According to patent publication US12692254B2, “Benzimidazole inhibitors of PAD enzymes” (BRISTOL-MYERS SQUIBB COMPANY, priority 2018, dated 2026):
# pIC50: −log10 of the molar value.
# Molecular target: human PAD4 (hPAD4) (Homo sapiens, UniProt Q9UM07)
# Assay: RFMS human PAD4 functional assay (rapid-fire mass spectrum)
# Assay type: biochemical
# Details: 5 nM hPAD4 enzyme, 250 μM BAEE, 50 μM Calcium; 30 min preincubation, 90 min reaction at 37° C.
# Outline: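 PAD4 (10 nM) preincubated 30 min with compound (top final 50 μM), then BAEE substrate added in pH 7.5 HEPES buffer with DTT, 50 μM calcium, TPEN; 90 min at 37° C. After TCA quench, citrulline derivatized with phenyl glyoxal (4 mM final, 30 min, 37° C) and quantified by RapidFire MS against internal standard.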
# Chain of human PAD4 (hPAD4) (Q9UM07 whole entry): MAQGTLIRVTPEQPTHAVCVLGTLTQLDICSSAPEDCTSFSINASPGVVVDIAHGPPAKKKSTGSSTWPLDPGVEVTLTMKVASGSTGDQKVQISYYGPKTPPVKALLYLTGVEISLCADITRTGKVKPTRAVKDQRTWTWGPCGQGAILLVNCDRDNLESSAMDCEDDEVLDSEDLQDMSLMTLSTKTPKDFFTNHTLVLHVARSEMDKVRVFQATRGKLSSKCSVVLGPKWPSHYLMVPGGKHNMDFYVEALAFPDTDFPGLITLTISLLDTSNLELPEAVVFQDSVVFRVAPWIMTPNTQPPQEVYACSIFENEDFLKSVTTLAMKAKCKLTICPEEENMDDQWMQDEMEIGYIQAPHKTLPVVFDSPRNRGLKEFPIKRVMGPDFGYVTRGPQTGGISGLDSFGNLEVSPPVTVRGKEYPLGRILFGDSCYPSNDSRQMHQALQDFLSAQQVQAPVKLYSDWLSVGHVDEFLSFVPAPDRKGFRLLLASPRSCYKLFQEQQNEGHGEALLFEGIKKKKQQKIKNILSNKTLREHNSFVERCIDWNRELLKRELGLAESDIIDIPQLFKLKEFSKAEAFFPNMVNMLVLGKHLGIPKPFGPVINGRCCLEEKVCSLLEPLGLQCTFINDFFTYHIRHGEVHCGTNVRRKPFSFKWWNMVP
row,pIC50,Compound
1,7.64,"COc1cc(C(=O)N2C[C@H]3CC[C@@H]2[C@@H]3N)cc2nc(-c3cc4ccccc4n3CC3CC3)n(CC3CN(c4nccnc4C#N)C3)c12 [Example 64, 3-[3-({5-[(1R,4R,7R)-7-amino-2-azabicyclo[2.2.1]heptane-2-carbonyl]-2-[1-(cyclopropylmethyl)-1H-indol-2-yl]-7-methoxy-1H-1,3-benzodiazol-1-yl}methyl)azetidin-1-yl]pyrazine-2-carbonitrile]"
2,7.80,"COc1cc(C(=O)N2CC3CCC2[C@@H]3N)cc2nc(-c3cc4ccccc4n3CC3CC3)n(Cc3cnn(-c4ccc(C)nc4)c3)c12 (stereo partly drawn) [Example 350, (7R)-2-{2-[1-(cyclopropylmethyl)-1H-indol-2-yl]-7-methoxy-1-{[1-(6-methylpyridin-3-yl)-1H-pyrazol-4-yl]methyl}-1H-1,3-benzodiazole-5-carbonyl}-2-azabicyclo[2.2.1]heptan-7-amine]"
3,7.64,"N[C@@H]1C2CCC1N(C(=O)c1cc(Cl)c3c(c1)nc(-c1cc4ccccc4n1CC1CC1)n3CC1CN(C(=O)c3ccccc3)C1)C2 (stereo partly drawn) [Example 143, (1R,4R,7R)-2-{1-[(1-benozylazetidin-3-yl)methyl]-7-chloro-2-[1-(cyclopropylmethyl)-1H-indol-2-yl]-1H-1,3-benzodiazole-5-carbonyl}-2-azabicyclo[2.2.1]heptan-7-amine]"
4,7.64,"COc1cc(C(=O)N2CC3CCC2[C@@H]3N)cc2nc(-c3cc4ccccc4n3CC3CC3)n(Cc3cnn(-c4cnccn4)c3)c12 (stereo partly drawn) [Example 358, (7R)-2-{2-[1-(cyclopropylmethyl)-1H-mdol-2-yl]-7-methoxy-1-{[1-(pyrazin-2-yl)-1H-pyrazol-4-yl]methyl}-1H-1,3-benzodiazole-5-carbonyl}-2-azabicyclo[2.2.1]heptan-7-amine]"
5,7.57,"COc1cc(C(=O)N2C[C@H]3CC[C@@H]2[C@@H]3N)cc2nc(-c3cc4ccccc4n3CC3CC3)n(Cc3cn[nH]c3)c12 [Example 247, (1-((1H-pyrazol-4-yl)methyl)-2-(1-(cyclopropylmethyl)-1H-indol-2-yl)-7-methoxy-1H-benzo[d]imidazol-5-yl)((1R,4R,7R)-7-amino-2-azabicyclo[2.2.1]heptan-2-yl)methanone]"
6,6.86,"N[C@@H]1[C@@H]2CC[C@H]1N(C(=O)c1cc(Cl)c3c(c1)nc(-c1cc4cccnc4n1CC1CC1)n3CC1CN(C(=O)c3ccncc3)C1)C2 [Example 131, (1R,4R,7R)-2-{7-chloro-2-[1-(cyclopropylmethyl)-1H-pyrrolo[2,3-b]pyridin-2-yl]-1-{[1-(pyridine-4-carbonyl)azetidin-3-yl]methyl}-1H-1,3-benzodiazole-5-carbonyl}-2-azabicyclo[2.2.1]heptan-7-amine]"
7,7.35,"COc1cc(C(=O)N2CC3CCC2[C@@H]3N)cc2nc(-c3cc4cccnc4n3CC3CC3)n(Cc3cnn(C)c3C)c12 (stereo partly drawn) [Example 486, (7R)-2-{2-[1-(cyclopropylmethyl)-1H-pyrrolo[2,3-b]pyridin-2-yl]-l-[(1,5-dimethyl-1H-pyrazol-4-yl)methyl]-7-methoxy-1H-1,3-benzodiazole-5-carbonyl}-2-azabicyclo[2.2.1]heptan-7-amine]"
8,7.47,"COc1cc(C(=O)N2C[C@H]3CC[C@@H]2[C@@H]3N)cc2nc(-c3cc4cccnc4n3CC3CC3)n(C3CN(C(=O)c4ccnc(Cl)n4)C3)c12 [Example 94, (1R,4R,7R)-2-{1-[1-(2-chloropyrimidine-4-carbonyl)azetidin-3-yl]-2-[1-(cyclopropylmethyl)-1H-pyrrolo[2,3-b]pyridin-2-yl]-7-methoxy-1H-1,3-benzodiazole-5-carbonyl}-2-azabicyclo[2.2.1]heptan-7-amine]"
9,5.77,"COc1cc(C(=O)N2C[C@H]3CC[C@@H]2[C@@H]3N)cc2nc(-c3cc4cccnc4n3CC3CC3)n(C3CN(c4ccncn4)C3)c12 [Example 86, (1R,4R,7R)-2-{2-[1-(cyclopropylmethyl)-1H-pyrrolo[2,3-b]pyridin-2-yl]-7-methoxy-1-[1-(pyrimidin-4-yl)azetidin-3-yl]-1H-1,3-benzodiazole-5-carbonyl}-2-azabicyclo[2.2.1]heptan-7-amine]"
10,7.64,"COc1cc(C(=O)N2C[C@H](N)C[C@@H](F)C2)cc2nc(-c3cc4ccccc4n3CC3CC3)n(CC3CN(C(=O)c4cccc(F)c4)C3)c12 [Example 157, (3R,5R)-1-{2-[1-(cyclopropylmethyl)-1H-indol-2-yl]-1-{[1-(3-fluorobenzoyl)azetidin-3-yl]methyl}-7-methoxy-1H-1,3-benzodiazol-5-carbonyl}-5-fluoropiperidin-3-amine]"
11,7.51,"COc1cc(C(=O)N2CC3CCC2[C@@H]3N)cc2nc(-c3cc4ccccc4n3CC3CC3)n(CC3(F)CN(C(=O)c4ccccc4)C3)c12 (stereo partly drawn) [Example 432, (7R)-2-{1-[(1-benzoyl-3-fluoroazetidin-3-yl)methyl]-2-[1-(cyclopropylmethyl)-1H-indol-2-yl]-7-methoxy-1H-1,3-benzodiazole-5-carbonyl}-2-azabicyclo[2.2.1]heptan-7-amine]"
12,7.26,"COc1cc(C(=O)N2C[C@H]3CC[C@@H]2[C@@H]3N)cc2nc(-c3cc4cccnc4n3CC3CC3)n(CC3CN(c4cncc(C#N)n4)C3)c12 [Example 3, 6-(3-((5-((1R,4R,7R)-7-amino-2-azabicyclo[2.2.1]heptane-2-carbonyl)-2-(1-(cyclopropylmethyl)-1H-pyrrolo[2,3-b]pyridin-2-yl)-7-methoxy-1H-benzo[d]imidazol-1-yl)methyl)azetidin-1-yl)pyrazine-2-carbonitrile]"
13,6.71,"CCC(=O)N1CC(Cn2c(-c3cc4cccnc4n3CC3CC3)nc3cc(C(=O)N4C[C@H]5CC[C@@H]4[C@@H]5N)cc(OC)c32)C1 [Example 134, 1-[3-({5-[(1R,4R,7R)-7-amino-2-azabicyclo[2.2.1]heptane-2-carbonyl]-2-[1-(cyclopropylmethyl)-1H-pyrrolo[2,3-b]pyridin-2-yl]-7-methoxy-1H-1,3-benzodiazol-1-yl}methyl)azetidin-1-yl]propan-1-one]"
14,7.24,"CCS(=O)(=O)N1CC(n2c(-c3cc4cccnc4n3CC3CC3)nc3cc(C(=O)N4CC5CCC4[C@@H]5N)cc(OC)c32)C1 (stereo partly drawn) [Example 327, (1R,4R.,7R)-2-{2-[1-(cyclopropylmethyl)-1H-pyrrolo[2,3-b]pyridin-2-yl]-1-[1-(ethanesulfonyl)azetidin-3-yl]-7-methoy-1H-1,3-benzodiazole-5-carbonyl}-2-azabicyclo[2.2.1]heptan-7-amine]"
15,7.00,"COc1cc(C(=O)N2CC3CCC2[C@@H]3N)cc2nc(-c3cc4ccccc4n3CC3CC3)n(CC3CC3)c12 (stereo partly drawn) [Example 476, (7R)-2-[1-(cyclopropylmethyl)-2-[1-(cyclopropylmethyl)-1H-indol-2-yl]-7-methoxy-1H-1,3-benzodiazole-5-carbonyl]-2-azabicyclo[2.2.1]heptan-7-amine]"
16,7.54,"COc1cc(C(=O)N2CC3CCC2[C@@H]3N)cc2nc(-c3cc4cccnc4n3CC3CC3)n(CC3CN(C(=O)c4ccc(Cl)cc4)C3)c12 (stereo partly drawn) [Example 429, (7R)-2-(1-{[1-(4-chlorobenzoyl)azetidin-3-yl]methyl}-2-[1-(cyclopropylmethyl)-1H-pyrrolo[2,3-b]pyridin-2-yl]-7-methoxy-1H-1,3-benzodiazole-5-carbonyl)-2-azabicyclo[2.2.1]heptan-7-amine]"
